{"source": "patent US6583132B1", "about": "“Oxidant scavengers” (Duke University, priority 1993, dated 2003)", "system": "aconitase", "experiment": "Aconitase activity in cortical cell lysates", "format": "cell-based, rat", "settings": "200 μM MnTBAP", "description": "Tissue culture: Mixed neuronal and glial cultures were prepared from embryonic day-18 rat cerebral cortices (Sprague-Dawley, Zivic Miller). Briefly, the cerebral cortices were dissected and enzymatically dissociated by incubation in Ca^++-, Mg^++-free Hank's balanced salt solution (HBSS) supplemented with 10 mM HEPES and 0.25% trypsin for 20 min. at 37° C. The tissue was rinsed and dispersed into single cell suspension by gentle passage through a fire polished Pasteur pipette. The cell suspension was centrifuged and resuspended in Minimum Essential Media (MEM), containing Earle's salts supplemented with 3 g/L glucose, 5% horse serum and 5% fetal bovine serum (growth media). The cells were plated in poly-D-lysine-coated multi-well plates: 12-well plates for aconitase measurement, and 24 well plates for toxicity experiments. Cells were maintained at 37° C. in a humidified incubator with 5% CO2/95% air in growth media. Media was not replaced so as to reduce glial overgrowth and neuronal loss. Mature cells (14-17 days in vitro) were used for all experiments.\nCell treatment: The growth media was replaced with MEM supplemented with 25 mM glucose (MEM-g). For both neurotoxicity studies and aconitase measurement, cells were incubated in the designated treatment for the indicated length of time at 37° C. Unless otherwise specified, antagonists or SOD-mimetics were added 15 min. prior to agonists. For measurement of neurotoxicity, cells were incubated with treatments for 18 hr at 37° C. in MEM-g. To access the ability of antagonists to inhibit acute NMDA toxicity or rescue cells from an ongoing NMDA insult, an alternate paradigm of NMDA treatment was used in addition to the one describe above. In this paradigm, growth media was replaced with HBSS^+ (Ca^++-, Mg^++-free Hank's Balanced Salt Solution supplemented with 2 mM CaCl2, 1 mM NaHCO3, 10 mM HEPES and 5 μM glycine), cells were treated with vehicle or 100 μM NMDA for 15 min. after which HBSS^+ was replaced with MEM-g and cells were returned to the incubator for 18 additional hrs. Antagonsists or SOD-mimetics were added to the cells 15 min. before NMDA exposure or 15, 30 or 60 min. following final media replacement. For determination of Ca^++-dependence, cells were incubated in HBSS^+ with no added Ca^++. When kainate (KA) was used as an agonist, 100 μM D-APV was routinely included to block secondary NMDA receptor activation. Catalase (100 U/ml) was always included when xanthine plus xanthine oxidase (X+XO) was used as a treatment to rule out the contribution of hydrogen peroxide.\nAconitase measurement: For the measurement of aconitase, following treatment with agents, media was removed and cells lysed in ice-cold 50 mM, Tris/HCl, pH 7.4 containing 0.6 mM MnCl2, 1 mM L-cysteine, 1 mM citrate and 0.5% Triton-X 100. The aconitase activity of cell lysates was measured spectrophotometrically by monitoring the formation of cis-aconitate from isocitrate at 240 nm in 50 mM Tris/HCl, pH 7.4, containing 0.6 mM MnCl2 and 20 mM isocitrate at 25° C. (Kreb and Holzach, Biochem. J. 52:527 (1952); Gardner and Fridovich, J. Biol. Chem. 267:8757 (1992)). […] Aconitase activity in cortical cell lysates was inhibited by 0.1 mM potassium ferricyanide or by boiling of sample.", "data": [{"substance": "Mn(III) tetrakis (4-benzoic acid)porphyrin [MnTBAP]", "values": [{"measurement": "PQ^++-, NMDA- and KA-mediated decreases of aconitase activity", "value": "markedly inhibited"}]}]}
